Values of other authors, collected in article PMC11436104 (Toxins, 2024).

Tested on: rat primary astrocytes
Details: cited from earlier work

Which “cytotoxicity in rat primary astrocytes” value does the source give for MC-LF here?
The value was “selective cytotoxicity”.
